Here are results for five compounds from patent publication US20110195929A1, “COMPOUNDS FOR THE TREATMENT OF FLAVIVIRAL INFECTIONS” (SUMMIT CORPORATION PLC, priority 2008, published 2011).

pIC50: −log10 of the molar value. Like-named read-outs stand apart in the source and are kept apart here.

The target of one experiment is T1, α-L-fucosidase (Bos taurus, UniProt Q2KIM0).
T1 construct: purchased Sigma; host or cells: bovine kidney
T1 sequence (Q2KIM0 23-468): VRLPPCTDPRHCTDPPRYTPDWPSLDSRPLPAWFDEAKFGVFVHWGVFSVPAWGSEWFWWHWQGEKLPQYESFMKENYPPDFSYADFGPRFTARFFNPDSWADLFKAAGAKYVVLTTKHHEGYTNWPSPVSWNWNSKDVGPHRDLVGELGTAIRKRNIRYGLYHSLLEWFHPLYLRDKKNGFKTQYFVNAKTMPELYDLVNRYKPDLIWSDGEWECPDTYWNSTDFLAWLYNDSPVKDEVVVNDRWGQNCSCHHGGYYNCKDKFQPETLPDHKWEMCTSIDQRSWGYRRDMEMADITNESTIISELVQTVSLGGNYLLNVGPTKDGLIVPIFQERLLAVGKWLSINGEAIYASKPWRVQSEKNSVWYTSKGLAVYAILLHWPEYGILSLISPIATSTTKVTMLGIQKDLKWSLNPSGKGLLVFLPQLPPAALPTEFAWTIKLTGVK
As to the kind of experiment: Glycosidase inhibition: α-L-fucosidase. Format: biochemical, Bovine kidney. Particulars: 1 mg/ml; pH 5.5, 20° C. As for the experimental part: (§1) All enzymes were purchased from Sigma, as were the appropriate p-nitrophenyl substrates. Assays were carried out in microtitre plates. Enzymes were assayed in 0.1M citric acid/0.2M di-sodium hydrogen phosphate (McIlvaine) buffers at the optimum pH for the enzyme. All assays were carried out at 20° C. For screening assays the incubation assay consisted of 10 μl of enzyme solution, 10 μl of inhibitor solution (made up in water at 5 mM) and 50 μl of the appropriate 5 mM p-nitrophenyl substrate (3.57 mM final conc.) made up in McIlvaine buffer at the optimum pH for the enzyme.
(§2) The reactions were stopped with 0.4M glycine (pH 10.4) during the exponential phase of the reaction, which was determined at the beginning of the assay using blanks with water, which were incubated for a range of time periods to measure the reaction rate using 5 mM substrate solution. Endpoint absorbances were read at 405 nm with a Bio-rad microtitre plate reader (Benchmark). Water was substituted for the inhibitors in the blanks.

Experiment [1] addresses T2, α-D-glucosidase (Saccharomyces cerevisiae, UniProt P53341).
T2 construct: purchased Sigma
As to the kind of experiment: Glycosidase inhibition: α-D-glucosidase (yeast). The conditions noted are these: 1 mg/ml; pH 6.0, 20° C; read-out: % inhibition α-gluc (yeast). Format: biochemical, Saccharomyces cerevisiae (Baker's yeast). The procedure:
as §1, with “Inhibition of the N-linked glycan trimming enzymes alpha-Glucosidases I and II or alpha-Mannosidases I and II are thought to be related to the anti-viral activity of castanospermine (Compound 104) and 1-deoxynojirimycin (Compound 193). […] All enzymes” for “All enzymes”
as §2

The next experiment addresses T3, α-D-galactosidase (Coffea arabica, UniProt Q42656).
T3 construct: purchased Sigma
As to the kind of experiment: Glycosidase inhibition: α-D-galactosidase. Format: biochemical, Green coffee beans (Coffea sp.). The conditions noted are these: 1 mg/ml; pH 6.5, 20° C. The procedure:
as §1, with “Inhibition of the N-linked glycan trimming enzymes alpha-Glucosidases I and II or alpha-Mannosidases I and II are thought to be related to the anti-viral activity of castanospermine (Compound 104) and 1-deoxynojirimycin (Compound 193). […] All enzymes” for “All enzymes”
as §2

The test system of experiment [2] is α-D-glucosidase. As to the kind of experiment: Glycosidase inhibition: α-D-glucosidase (Bacillus). The conditions noted are these: 1 mg/ml; pH 6.0, 20° C. Format: biochemical, Bacillus stearothermophilus. The procedure: as §1, with “Inhibition of the N-linked glycan trimming enzymes alpha-Glucosidases I and II or alpha-Mannosidases I and II are thought to be related to the anti-viral activity of castanospermine (Compound 104) and 1-deoxynojirimycin (Compound 193). […] All enzymes” for “All enzymes”
as §2

The target in experiment [3] is T4, α-D-glucosidase (Oryza sativa subsp. japonica, UniProt Q653V7).
T4 construct: purchased Sigma
As to the kind of experiment: Glycosidase inhibition: α-D-glucosidase (rice). Particulars: 1 mg/ml; pH 6.0, 20° C; read-out: % inhibition α-gluc (rice). It is filed as biochemical, rice (Oryza sativa). As for the experimental part:
as §1, with “Inhibition of the N-linked glycan trimming enzymes alpha-Glucosidases I and II or alpha-Mannosidases I and II are thought to be related to the anti-viral activity of castanospermine (Compound 104) and 1-deoxynojirimycin (Compound 193). […] All enzymes” for “All enzymes”
as §2

For the next experiment, the system named is HCV. As to the kind of experiment: Cell-based HCV infection NS3 protease FRET assay in DMSO-Huh7 cells. Also noted: species or system hepatitis C virus (HCV). Particulars: DMSO-Huh7 cells infected with HCV at 0.05 ffu/cell; HCV NS3 protein levels by FRET, day 6 p.i.
The test system of another experiment is BVDV. As to the kind of experiment: BVDV plaque inhibition assay. It is filed as cell-based, bovine diarrhoea virus (BVDV). The conditions noted are these: for pIC50 / IC50: Bovine viral diarrhea virus isolates and strains, in Bos taurus; for pIC50: read-out: IC50; for IC50: read-out: IC50 (μg/ml); for % untreated control: Example 5. The procedure: BVDV Plaque Assay: In the absence of a suitable cell culture system able to support replication of human HCV, bovine diarrhoea virus (BVDV) is an accepted cell culture model. HCV and BVDV share a significant degree of local protein homology, a common replication strategy and probably the same subcellular location for viral envelopment.
(§3) The materials and procedures were as described in Whitby et al. (2004) Antiviral Chemistry and Chemotherapy 15: 141-151. In brief, MDBK cells were seeded in 96 well plates and allowed to reach confluency. Monolayers were exposed to between 14 and 45 plaque forming units of BVDV and adsorption allowed to take place. Infected monolayers were then exposed to the test compound, medium added containing low gelling-point agarose and allowed to set. The plates were then incubated for 4 days post infection, fixed in 5% formalin and stained with 0.5% neutral red after removal of the agarose layer. Anti-viral activity was measured by determination of plaque inhibition and expressed as IC50 values. Castanospermine, a known viral inhibitor, was used as a positive control.
For these assays a confluent monolayer of MDBK cells is produced in a flat bottomed well of a tissue culture plate. The monolayer is infected with BVDV. Sufficient virus is added to eventually form approximately 20-30 plaques. After allowing approximately 1 hr for the virus to infect, the cells are washed and liquid agar is added and allowed to set as a thin layer over the cell surface (the ‘overlay’). The infected cells are then left for a period of days to allow the virus to replicate and cells to shed virus, detach or lyse. Cells in the immediate vicinity of the initial virus infection are therefore infected—localized by the agar layer.
The test compound is added at appropriate dilutions with the virus. An antiviral effect of the compound is scored by the reduction of plaque number or size. The concentration of compound required to produce a 50% (IC50) reduction of plaque number or size is noted. Controls of no compound added are included. A control of a known antiviral compound (castanospermine) is carried out to calibrate the antiviral activity.
Plaque Assay: The materials and procedures were as described in Whitby et al. (2004) Antiviral Chemistry and Chemotherapy 15: 141-151.
as §3, with “In” for “The materials and procedures were as described in Whitby et al. (2004) Antiviral Chemistry and Chemotherapy 15: 141-151. In”, “Castanospermine (Compound 104),” for “Castanospermine,”

For another experiment, the system named is β-D-glucosidase. As to the kind of experiment: Glycosidase inhibition: β-D-glucosidase. Format: biochemical, Almonds (Prunus sp.). Particulars: 1 mg/ml; pH 5.0, 20° C. The procedure: as §1, with “Inhibition of the N-linked glycan trimming enzymes alpha-Glucosidases I and II or alpha-Mannosidases I and II are thought to be related to the anti-viral activity of castanospermine (Compound 104) and 1-deoxynojirimycin (Compound 193). […] All enzymes” for “All enzymes”
as §2

[4] abbreviates: Examples 1-3, 50% reduction of plaque number or size, MDBK cells.

T2 sequence (P53341 whole entry): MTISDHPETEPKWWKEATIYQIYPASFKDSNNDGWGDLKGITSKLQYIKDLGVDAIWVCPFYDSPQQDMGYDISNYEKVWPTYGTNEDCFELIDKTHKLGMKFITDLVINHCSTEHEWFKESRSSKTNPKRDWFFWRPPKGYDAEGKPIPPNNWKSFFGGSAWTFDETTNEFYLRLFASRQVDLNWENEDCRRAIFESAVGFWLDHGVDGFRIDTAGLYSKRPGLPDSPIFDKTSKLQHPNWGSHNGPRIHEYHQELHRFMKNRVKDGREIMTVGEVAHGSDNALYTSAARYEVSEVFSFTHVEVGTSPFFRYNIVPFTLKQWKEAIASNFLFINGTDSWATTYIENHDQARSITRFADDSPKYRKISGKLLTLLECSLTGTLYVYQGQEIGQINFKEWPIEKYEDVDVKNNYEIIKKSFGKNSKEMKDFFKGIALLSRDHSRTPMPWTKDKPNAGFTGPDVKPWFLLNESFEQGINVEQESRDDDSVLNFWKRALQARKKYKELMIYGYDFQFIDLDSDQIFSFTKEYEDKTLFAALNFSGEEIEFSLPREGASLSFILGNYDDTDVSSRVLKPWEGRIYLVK
T3 sequence (Q42656 16-378): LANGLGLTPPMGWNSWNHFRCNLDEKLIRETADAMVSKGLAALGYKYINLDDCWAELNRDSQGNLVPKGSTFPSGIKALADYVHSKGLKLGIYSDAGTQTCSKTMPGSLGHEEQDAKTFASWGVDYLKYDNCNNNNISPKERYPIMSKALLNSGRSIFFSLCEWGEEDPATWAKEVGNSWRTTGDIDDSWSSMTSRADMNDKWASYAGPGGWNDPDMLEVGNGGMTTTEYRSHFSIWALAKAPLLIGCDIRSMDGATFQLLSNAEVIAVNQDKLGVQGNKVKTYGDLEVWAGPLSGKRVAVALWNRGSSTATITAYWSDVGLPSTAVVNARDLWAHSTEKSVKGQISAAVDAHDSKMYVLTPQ
T4 sequence (Q653V7 34-885): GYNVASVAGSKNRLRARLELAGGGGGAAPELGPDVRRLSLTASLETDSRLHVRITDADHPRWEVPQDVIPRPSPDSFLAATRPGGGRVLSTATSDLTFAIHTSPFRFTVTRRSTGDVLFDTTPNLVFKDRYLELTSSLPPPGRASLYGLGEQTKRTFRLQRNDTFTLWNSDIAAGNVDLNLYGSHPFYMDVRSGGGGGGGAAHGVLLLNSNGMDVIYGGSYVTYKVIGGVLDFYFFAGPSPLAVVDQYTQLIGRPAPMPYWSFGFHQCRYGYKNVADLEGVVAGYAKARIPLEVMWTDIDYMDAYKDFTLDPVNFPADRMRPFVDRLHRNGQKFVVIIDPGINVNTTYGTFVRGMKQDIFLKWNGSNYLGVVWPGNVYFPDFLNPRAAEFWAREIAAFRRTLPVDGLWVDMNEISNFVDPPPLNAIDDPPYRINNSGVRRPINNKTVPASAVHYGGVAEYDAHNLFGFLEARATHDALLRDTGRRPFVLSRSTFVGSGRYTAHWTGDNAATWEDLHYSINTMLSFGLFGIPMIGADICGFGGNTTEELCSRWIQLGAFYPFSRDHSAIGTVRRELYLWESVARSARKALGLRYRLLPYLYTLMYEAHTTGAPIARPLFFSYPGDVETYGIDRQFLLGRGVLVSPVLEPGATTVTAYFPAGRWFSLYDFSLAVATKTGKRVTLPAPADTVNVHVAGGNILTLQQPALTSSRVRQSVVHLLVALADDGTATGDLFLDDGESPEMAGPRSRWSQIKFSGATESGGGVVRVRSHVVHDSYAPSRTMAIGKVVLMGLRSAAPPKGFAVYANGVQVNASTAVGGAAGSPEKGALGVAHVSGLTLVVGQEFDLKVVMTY

What is called inhibition is the relative decrease from the control value, in per cent. As a reminder, the pIC50 is the IC50 on a negative log10 scale, so that one unit is a factor of ten. With `CC[C@@H]1N[C@@H](CO)[C@H](O)[C@@H](O)[C@@H]1O` [Compound 23, (2S,3R,4S,5S,6S)-2-ethyl-6-(hydroxymethyl)piperidine-3,4,5-triol], the inhibition at 1000 µg/mL against α-L-fucosidase stood at 0%; at α-D-glucosidase [1] it was 0%; on α-D-galactosidase, 0%; at α-D-glucosidase [3], 66%. Moreover, in the experiment with α-D-glucosidase [2], the “% inhibition α-gluc (Bacillus)” value was 0%. Further, the Ave % inhibition result in the experiment on HCV was “+ (+: ≦19%)”. For the same compound, the pIC50 in the experiment on BVDV (MDBK, 96 h) was 3.38. Further, the IC50 with BVDV (MDBK, 96 h) came out at 80 µg/mL. Further, the “% untreated control” value in the experiment with BVDV (dose 32 μg/ml (0.17 mM)) is on record as 83%; in the experiment on BVDV (dose 63 μg/ml (0.33 mM)), 56%; in the experiment with BVDV (dose 125 μg/ml (0.65 mM)) it was 47%; in the experiment on BVDV (dose 250 μg/ml (1.30 mM)) it was 35%; in the experiment on BVDV (dose 500 μg/ml (2.60 mM)), 22%. In addition, in the experiment with β-D-glucosidase, the “% inhibition β-glucosidase” value turned out to be 28%.

As for `CC[C@@H](O)[C@H]1N[C@H](CO)[C@@H](O)[C@@H]1O` [Compound 62, (2R,3R,4R,5R)-2-(hydroxymethyl)-5-((R)-1-hydroxypropyl)pyrrolidine-3,4-diol], the inhibition at 1000 µg/mL against α-L-fucosidase stood at 0%; on α-D-glucosidase [1] it was 0%; at α-D-galactosidase, 0%; at α-D-glucosidase [3], 32%. Also, the “% inhibition α-gluc (Bacillus)” value with α-D-glucosidase [2] came out at 65%. For the same compound, the Ave % inhibition result in the experiment on HCV is reported as “+ (+: ≦19%)”. For the same compound, in the experiment with BVDV (setting [4]), the IC50 stood at 16.7 µg/mL. The “% inhibition β-glucosidase” value in the experiment on β-D-glucosidase was found to be 100%.

Turning to `CC(O)[C@H](O)[C@H]1N[C@H](CO)[C@@H](O)[C@@H]1O` (stereo partly drawn) [Compound 63, (2R,3R,4R,5R)-2-((1R)-1,2-dihydroxypropyl)-5-(hydroxymethyl)pyrrolidine-3,4-diol], the inhibition at 1000 µg/mL against α-L-fucosidase is 0%; at α-D-glucosidase [1] it was 0%; against α-D-galactosidase, 0%; at α-D-glucosidase [3] it was 41%. In the experiment on α-D-glucosidase [2], the “% inhibition α-gluc (Bacillus)” value stood at 36%. Also, the Ave % inhibition result in the experiment on HCV is reported as “+ (+: ≦19%)”. The IC50 in the experiment on BVDV (setting [4]) stood at 87.2 µg/mL. The “% inhibition β-glucosidase” value in the experiment with β-D-glucosidase is on record as 93%.

For `O[C@H]1[C@H](O)[C@@H](O)CN2CC[C@H](O)[C@H]12` [Compound 104, Castanospermine, reference compound], the inhibition at 1000 µg/mL on α-L-fucosidase amounted to 0%; on α-D-glucosidase [1], 0%; against α-D-galactosidase, 0%; at α-D-glucosidase [3] it was 90%. In addition, the “% inhibition α-gluc (Bacillus)” value in the experiment on α-D-glucosidase [2] amounted to 0%. The pIC50 with BVDV (MDBK, 96 h) is 3.92. The IC50 worked out at 22.5 µg/mL in the experiment with BVDV (MDBK, 96 h) and 15.6 µg/mL in the experiment on BVDV (setting [4]). Also, the “% untreated control” value in the experiment on BVDV (dose 6.0 μg/ml (0.03 mM)) worked out at 98%; in the experiment with BVDV (dose 12.5 μg/ml (0.07 mM)) it was 67%; in the experiment on BVDV (dose 25.0 μg/ml (0.13 mM)) it was 46%; with BVDV (dose 50.0 μg/ml (0.26 mM)), 12%; in the experiment on BVDV (dose 100.0 μg/ml (0.53 mM)) it was 1.1%. Further, the “% inhibition β-glucosidase” value with β-D-glucosidase came to 88%.

Regarding `OC[C@@H]1NC[C@H](O)[C@@H]1O` [Compound 167, (2S,3R,4S)-2-(hydroxymethyl)pyrrolidine-3,4-diol], the inhibition at 1000 µg/mL amounted to 28% at α-L-fucosidase, 0% on α-D-glucosidase [1], 32% against α-D-galactosidase and 58% at α-D-glucosidase [3]. In the experiment on α-D-glucosidase [2], the “% inhibition α-gluc (Bacillus)” value came to 35%. For the same compound, the IC50 in the experiment on BVDV (setting [4]) is 57.6 µg/mL. Moreover, the “% inhibition β-glucosidase” value with β-D-glucosidase worked out at 22%.
